Test results from patent US20240327463A1, “ANTIBACTERIAL PRODUCTS” (priority 2017, published 2024).
≈ marks a conversion by molar mass, not a printed value. Bridge positions count the residues as written; N and C are the ends. Square brackets hold non-standard residues; d marks the D form. Peptide text beside a SMILES is read from it. * marks the point of attachment. ξ: configuration not given here. dNMeF = CN[C@H](Cc1ccccc1)C(=O)O; Ile(3ξ) = CCC(C)[C@H](N)C(=O)O; X2 = O=C(CCCCCN1CNC(=S)NC1)*; X3 = O=C(CCCN1CNC(=S)NC1)*; X4 = O=C(CN1CNC(=S)NC1)*

How the values were obtained:
S. aureus ATCC 25923 = type: cell-based, Staphylococcus aureus
Outline: (§1)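 Strains grow in Mueller Hinton broth at 37 °C; test compound is diluted stepwise in Mueller Hinton to well 11, and the whole procedure is carried out in triplicate.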

MRSA DM21455 (eye) = assay: microbe, parasite or virus in culture; details: DM21455 (eye)
Outline: (§2)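 Each peptide, taken up in DMSO, is diluted stepwise by halves in Mueller Hinton broth (highest level 512 μg/ml). Plates incubate 24 hours at 37° C. The MIC is read as the lowest concentration lacking visible growth, with triplicate repeats.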

MRSA DR 42412 (sputum) = assay: microbe, parasite or virus in culture; details: DR 42412 (sputum)
Outline: as §2

VRE ATCC 700802 = assay: microbe, parasite or virus in culture; details: ATCC 700802
Outline: as §2

MRSA ATCC 700699 = assay: microbe, parasite or virus in culture; details: ATCC 700699
Outline: as §2

[1] = system: Staphylococcus aureus ATCC 29213; assay: microbe, parasite or virus in culture; details: ATCC 29213
Outline: as §2

VRE ATCC 29212 = assay: microbe, parasite or virus in culture; details: ATCC 29212
Outline: as §2

MRSA 1003 = type: cell-based, Staphylococcus aureus
Outline: as §1

SA4299 = type: cell-based; details: Table 11
Outline: as §1

[2] = system: Staphylococcus saprophyticus ATCC 49453; type: cell-based; details: ATCC 49453
Outline: as §1

[3] = system: Bacillus Subtilis ATCC 6633; type: cell-based
Outline: as §1

[4] = system: Bacillus Cereus ATCC 11788; type: cell-based
Outline: as §1

[5] = system: Staphylococcus saprophyticus ATCC 49907; type: cell-based; details: ATCC 49907
Outline: as §1

[6] = system: Staphylococcus saprophyticus ATCC BAA 750; type: cell-based; details: ATCC BAA 750
Outline: as §1

SE12228 = type: cell-based
Outline: as §1

[7] = system: Staphylococcus saprophyticus ATCC 15305; type: cell-based; details: ATCC 15305
Outline: as §1

VRE 1008 = type: cell-based, Enterococcus faecalis
Outline: as §1

VRE 1002 = type: cell-based, Enterococcus faecalis
Outline: as §1

VRE 1001 = type: cell-based, Enterococcus faecalis
Outline: as §1

VRE 1004 = type: cell-based, Enterococcus faecalis
Outline: as §1

MRSA ATCC 33591 = details: for MIC (MRSA): ATCC 33591
Outline: as §2

SMILES: CC[C@@H](C)[C@@H](NC(=O)[C@@H](CCC(N)=O)NC(=O)[C@H](CO)NC(=O)[C@@H](NC(=O)[C@@H](Cc1ccccc1)NC)[C@@H](C)CC)C(=O)N[C@H](C(=O)N[C@@H](CO)C(=O)N[C@H]1C(=O)N[C@@H](C)C(=O)N[C@@H](CCCCNC(=O)CCCN2CNC(=S)NC2)C(=O)N[C@@H]([C@@H](C)CC)C(=O)O[C@H]1C)[C@@H](C)CC [Compound 23, GABA-thiourea-Lys10-teixobactin] (H-[dNMeF]IS[dQ][dI]IS[dT]AK(X3)I; ester 8-C)
- MIC against S. aureus ATCC 25923 (S. aureus ATCC 25923): 2 µg/mL (≈ 1.43 µM)

SMILES: CC[C@@H](C)[C@@H](NC(=O)[C@@H](CCC(N)=O)NC(=O)[C@H](CO)NC(=O)[C@@H](NC(=O)[C@@H](Cc1ccccc1)NC)[C@@H](C)CC)C(=O)N[C@H](C(=O)N[C@@H](CO)C(=O)N[C@H]1C(=O)N[C@@H](CCCNC(=N)N)C(=O)N[C@@H](CC(C)C)C(=O)N[C@@H]([C@@H](C)CC)C(=O)O[C@H]1C)[C@@H](C)CC [Compound 27, Arg9-Leu10-teixobactin] (H-[dNMeF]IS[dQ][dI]IS[dT]RLI; ester 8-C)
- MIC (MRSA DM21455 (eye)): 0.25 µg/mL (≈ 0.194 µM)
- MIC (MRSA DR 42412 (sputum)): <0.0625 µg/mL
- MIC (VRE ATCC 700802): 0.5 µg/mL (≈ 0.389 µM)
- MIC (MRSA ATCC 700699): 0.5 µg/mL (≈ 0.389 µM)
- MIC [1]: 0.5 µg/mL (≈ 0.389 µM)
- MIC (VRE ATCC 29212): 1 µg/mL (≈ 0.777 µM)
- MIC (MRSA 1003): 0.25 µg/mL (≈ 0.194 µM)
- MIC (SA4299): 0.25 µg/mL (≈ 0.194 µM)
- MIC [2]: <0.0625 µg/mL
- MIC [3]: <0.0625 µg/mL
- MIC [4]: 0.25 µg/mL (≈ 0.194 µM)
- MIC [5]: <0.0625 µg/mL
- MIC [6]: <0.0625 µg/mL
- MIC (SE12228): <0.0625 µg/mL
- MIC [7]: <0.0625 µg/mL
- MIC (VRE 1008): 0.25 µg/mL (≈ 0.194 µM)
- MIC (VRE 1002): 1 µg/mL (≈ 0.777 µM)
- MIC (VRE 1001): 0.5 µg/mL (≈ 0.389 µM)
- MIC (VRE 1004): 0.25 µg/mL (≈ 0.194 µM)
- MIC (MRSA) (MRSA ATCC 33591): 0.125 µg/mL (≈ 0.0972 µM)

SMILES: CC[C@@H](C)[C@@H](NC(=O)[C@@H](CCC(N)=O)NC(=O)[C@H](CO)NC(=O)[C@@H](NC(=O)[C@@H](Cc1ccccc1)NC)[C@@H](C)CC)C(=O)N[C@H](C(=O)N[C@@H](CO)C(=O)N[C@H]1C(=O)N[C@@H](C)C(=O)N[C@@H](CCCCNC(=O)CCCCCN2CNC(=S)NC2)C(=O)N[C@@H]([C@@H](C)CC)C(=O)O[C@H]1C)[C@@H](C)CC [Compound 24, Ahx-thiourea-Lys10-teixobactin] (H-[dNMeF]IS[dQ][dI]IS[dT]AK(X2)I; ester 8-C)
- MIC against S. aureus ATCC 25923 (S. aureus ATCC 25923): 2 µg/mL (≈ 1.4 µM)

SMILES: CC[C@@H](C)[C@@H](NC(=O)[C@@H](CCCNC(=N)N)NC(=O)[C@H](CO)NC(=O)[C@@H](NC(=O)[C@@H](Cc1ccccc1)NC)[C@@H](C)CC)C(=O)N[C@H](C(=O)N[C@@H](CO)C(=O)N[C@H]1C(=O)N[C@@H](CCCNC(=N)N)C(=O)N[C@@H](CC(C)C)C(=O)N[C@@H]([C@@H](C)CC)C(=O)O[C@H]1C)[C@@H](C)CC [Compound 30, D-Arg4-Arg9-Leu10-teixobactin] (H-[dNMeF]IS[dR][dI]IS[dT]RLI; ester 8-C)
- MIC (MRSA DM21455 (eye)): 1 µg/mL (≈ 0.761 µM)
- MIC (MRSA DR 42412 (sputum)): 1 µg/mL (≈ 0.761 µM)
- MIC (VRE ATCC 700802): 1 µg/mL (≈ 0.761 µM)
- MIC (MRSA ATCC 700699): 1 µg/mL (≈ 0.761 µM)
- MIC [1]: 1 µg/mL (≈ 0.761 µM)
- MIC (VRE ATCC 29212): 1 µg/mL (≈ 0.761 µM)
- MIC (MRSA 1003): 0.5 µg/mL (≈ 0.38 µM)
- MIC (SA4299): 0.5 µg/mL (≈ 0.38 µM)
- MIC [2]: <0.0625 µg/mL
- MIC [3]: <0.0625 µg/mL
- MIC [4]: 1 µg/mL (≈ 0.761 µM)
- MIC [5]: <0.0625 µg/mL
- MIC [6]: <0.0625 µg/mL
- MIC (SE12228): <0.0625 µg/mL
- MIC [7]: <0.0625 µg/mL
- MIC (VRE 1008): 1 µg/mL (≈ 0.761 µM)
- MIC (VRE 1002): 1 µg/mL (≈ 0.761 µM)
- MIC (VRE 1001): 1 µg/mL (≈ 0.761 µM)
- MIC (VRE 1004): 1 µg/mL (≈ 0.761 µM)
- MIC against MRSA ATCC 33591 (MRSA ATCC 33591): 1 µg/mL (≈ 0.761 µM)

SMILES: CC[C@@H](C)[C@@H](NC(=O)[C@@H](CCCNC(=N)N)NC(=O)[C@H](CCCNC(=N)N)NC(=O)[C@@H](NC(=O)[C@@H](Cc1ccccc1)NC)[C@@H](C)CC)C(=O)N[C@H](C(=O)N[C@@H](CO)C(=O)N[C@H]1C(=O)N[C@@H](C)C(=O)N[C@@H](CC(C)C)C(=O)N[C@@H]([C@@H](C)CC)C(=O)O[C@H]1C)[C@@H](C)CC [Compound 28, Arg3-D-Arg4-Leu10-teixobactin] (H-[dNMeF]IR[dR][dI]IS[dT]ALI; ester 8-C)
- MIC (MRSA DM21455 (eye)): 0.5 µg/mL (≈ 0.385 µM)
- MIC (MRSA DR 42412 (sputum)): 0.25 µg/mL (≈ 0.193 µM)
- MIC (VRE ATCC 700802): 2 µg/mL (≈ 1.54 µM)
- MIC (MRSA ATCC 700699): 0.5 µg/mL (≈ 0.385 µM)
- MIC [1]: 0.25 µg/mL (≈ 0.193 µM)
- MIC (VRE ATCC 29212): 1 µg/mL (≈ 0.77 µM)
- MIC (MRSA 1003): 1 µg/mL (≈ 0.77 µM)
- MIC (SA4299): 0.25 µg/mL (≈ 0.193 µM)
- MIC [2]: <0.0625 µg/mL
- MIC [3]: <0.0625 µg/mL
- MIC [4]: 1 µg/mL (≈ 0.77 µM)
- MIC [5]: <0.0625 µg/mL
- MIC [6]: <0.0625 µg/mL
- MIC (SE12228): <0.0625 µg/mL
- MIC [7]: <0.0625 µg/mL
- MIC (VRE 1008): 0.5 µg/mL (≈ 0.385 µM)
- MIC (VRE 1002): 1 µg/mL (≈ 0.77 µM)
- MIC (VRE 1001): 1 µg/mL (≈ 0.77 µM)
- MIC (VRE 1004): 0.5 µg/mL (≈ 0.385 µM)
- MIC against MRSA ATCC 33591 (MRSA ATCC 33591): 0.25 µg/mL (≈ 0.193 µM)

SMILES: CC[C@@H](C)[C@@H](NC(=O)[C@@H](CCC(N)=O)NC(=O)[C@H](CO)NC(=O)[C@@H](NC(=O)[C@@H](Cc1ccccc1)NC)[C@@H](C)CC)C(=O)N[C@H](C(=O)N[C@@H](CO)C(=O)N[C@H]1C(=O)N[C@@H](C)C(=O)N[C@@H](CCCCNC(=O)CN2CNC(=S)NC2)C(=O)N[C@@H]([C@@H](C)CC)C(=O)O[C@H]1C)[C@@H](C)CC [Compound 22, Gly-thiourea-Lys10-teixobactin] (H-[dNMeF]IS[dQ][dI]IS[dT]AK(X4)I; ester 8-C)
- MIC against S. aureus ATCC 25923 (S. aureus ATCC 25923): 2 µg/mL (≈ 1.46 µM)

SMILES: CCC(C)[C@@H]1NC(=O)[C@H](CCCNC(=N)N)NC(=O)[C@H](NC(=O)[C@H](CO)NC(=O)[C@@H](NC(=O)[C@H](NC(=O)[C@@H](CCC(N)=O)NC(=O)[C@H](CO)NC(=O)[C@@H](NC(=O)[C@@H](Cc2ccccc2)NC)[C@@H](C)CC)[C@H](C)CC)[C@@H](C)CC)[C@H](C)OC(=O)[C@H]([C@@H](C)CC)NC1=O (some centres unmarked) [Compound 34, Arg9-Ile10-teixobactin] (H-[dNMeF]IS[dQ][dI]IS[dT]R[Ile(3ξ)]I; ester 8-C)
- MIC (MRSA DM21455 (eye)): 0.5 µg/mL (≈ 0.389 µM)
- MIC (MRSA DR 42412 (sputum)): 0.125 µg/mL (≈ 0.0972 µM)
- MIC (VRE ATCC 700802): 1 µg/mL (≈ 0.777 µM)
- MIC (MRSA ATCC 700699): 1 µg/mL (≈ 0.777 µM)
- MIC [1]: 1 µg/mL (≈ 0.777 µM)
- MIC (VRE ATCC 29212): 1 µg/mL (≈ 0.777 µM)
- MIC (MRSA 1003): 0.5 µg/mL (≈ 0.389 µM)
- MIC (SA4299): 1 µg/mL (≈ 0.777 µM)
- MIC [2]: <0.0625 µg/mL
- MIC [3]: 0.125 µg/mL (≈ 0.0972 µM)
- MIC [4]: 0.5 µg/mL (≈ 0.389 µM)
- MIC [5]: <0.0625 µg/mL
- MIC [6]: <0.0625 µg/mL
- MIC (SE12228): <0.0625 µg/mL
- MIC [7]: <0.0625 µg/mL
- MIC (VRE 1008): 1 µg/mL (≈ 0.777 µM)
- MIC (VRE 1002): 1 µg/mL (≈ 0.777 µM)
- MIC (VRE 1001): 1 µg/mL (≈ 0.777 µM)
- MIC (VRE 1004): 1 µg/mL (≈ 0.777 µM)
- MIC (MRSA) (MRSA ATCC 33591): 0.25 µg/mL (≈ 0.194 µM)
